{
  "source": "paper PMC6886798",
  "about": "“Expression of myeloid Src-family kinases is associated with poor prognosis in AML and influences Flt3-ITD kinase inhibitor acquired resistance” (PLoS ONE, 2019)",
  "experiment_in_all_cases": "KINOMEscan",
  "assay_type_in_all_cases": "binding",
  "conditions_in_all_cases": "1.0 µM",
  "key": {"ALK": {"target": "T1, ALK (Homo sapiens, UniProt Q9UM73)", "T1 construct": "purchased Eurofins/DiscoverX KINOMEscan scanMAX", "T1 sequence (Q9UM73 19-1620)": "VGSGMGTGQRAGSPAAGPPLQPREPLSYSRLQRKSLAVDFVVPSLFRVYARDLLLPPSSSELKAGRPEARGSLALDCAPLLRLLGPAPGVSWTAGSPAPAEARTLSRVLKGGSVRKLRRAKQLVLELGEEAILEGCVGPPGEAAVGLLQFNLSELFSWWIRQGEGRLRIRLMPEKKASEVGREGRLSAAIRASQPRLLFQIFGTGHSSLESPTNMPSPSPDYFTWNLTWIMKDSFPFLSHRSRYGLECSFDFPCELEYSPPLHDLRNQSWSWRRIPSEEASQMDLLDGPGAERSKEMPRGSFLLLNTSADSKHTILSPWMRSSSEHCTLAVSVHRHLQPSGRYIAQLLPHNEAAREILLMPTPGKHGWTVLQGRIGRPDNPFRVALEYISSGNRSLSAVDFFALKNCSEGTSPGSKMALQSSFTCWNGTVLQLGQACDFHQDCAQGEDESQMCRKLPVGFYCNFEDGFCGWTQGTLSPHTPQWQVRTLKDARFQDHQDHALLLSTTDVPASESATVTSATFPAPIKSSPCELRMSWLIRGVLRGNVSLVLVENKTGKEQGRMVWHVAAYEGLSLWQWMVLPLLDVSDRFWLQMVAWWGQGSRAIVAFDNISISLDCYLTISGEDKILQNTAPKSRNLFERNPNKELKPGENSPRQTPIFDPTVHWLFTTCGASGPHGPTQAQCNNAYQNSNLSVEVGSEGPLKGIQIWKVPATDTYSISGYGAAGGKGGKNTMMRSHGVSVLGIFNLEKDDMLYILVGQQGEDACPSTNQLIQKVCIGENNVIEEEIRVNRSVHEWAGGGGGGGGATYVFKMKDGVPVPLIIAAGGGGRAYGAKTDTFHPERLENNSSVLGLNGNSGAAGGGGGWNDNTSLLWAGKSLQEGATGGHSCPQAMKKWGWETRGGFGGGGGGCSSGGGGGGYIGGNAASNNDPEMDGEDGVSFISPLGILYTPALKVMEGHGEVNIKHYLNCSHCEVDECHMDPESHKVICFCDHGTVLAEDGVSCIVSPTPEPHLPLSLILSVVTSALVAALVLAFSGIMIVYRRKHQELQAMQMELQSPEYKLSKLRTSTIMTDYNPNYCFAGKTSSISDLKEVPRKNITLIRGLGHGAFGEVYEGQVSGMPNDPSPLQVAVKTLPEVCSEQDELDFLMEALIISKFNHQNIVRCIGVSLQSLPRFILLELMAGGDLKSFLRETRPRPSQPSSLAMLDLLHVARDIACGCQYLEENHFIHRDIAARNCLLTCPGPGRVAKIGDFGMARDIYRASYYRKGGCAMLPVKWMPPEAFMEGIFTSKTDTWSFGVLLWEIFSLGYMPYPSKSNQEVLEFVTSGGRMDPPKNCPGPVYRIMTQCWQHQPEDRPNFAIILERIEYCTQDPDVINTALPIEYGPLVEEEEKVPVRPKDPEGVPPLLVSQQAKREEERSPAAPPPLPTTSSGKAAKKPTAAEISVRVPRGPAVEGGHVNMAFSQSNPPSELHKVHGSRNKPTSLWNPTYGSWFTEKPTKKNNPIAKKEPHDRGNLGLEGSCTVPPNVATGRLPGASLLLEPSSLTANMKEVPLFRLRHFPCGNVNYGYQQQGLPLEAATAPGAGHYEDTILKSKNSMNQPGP", "method": "(§1) Kinase retention to the immobilized ligand is then measured using quantitative real-time PCR for each kinase-specific DNA barcode."}, "ARK5": {"target": "T2, ARK5 (Homo sapiens, UniProt O60285)", "T2 construct": "purchased Eurofins/DiscoverX KINOMEscan scanMAX", "method": "as §1"}, "CASK": {"target": "T3, CASK (Homo sapiens, UniProt O14936)", "T3 construct": "purchased Eurofins/DiscoverX KINOMEscan scanMAX", "method": "as §1"}, "CDK4-cyclinD3": {"target": "T4, CDK4-cyclinD3 (Homo sapiens, UniProt P11802)", "T4 construct": "purchased Eurofins/DiscoverX KINOMEscan scanMAX", "method": "as §1"}, "CDK5": {"target": "T5, CDK5 (Homo sapiens, UniProt Q00535)", "T5 construct": "purchased Eurofins/DiscoverX KINOMEscan scanMAX", "method": "as §1"}, "CDK8": {"target": "T6, CDK8 (Homo sapiens, UniProt P49336)", "T6 construct": "purchased Eurofins/DiscoverX KINOMEscan scanMAX", "method": "as §1"}, "CSF1R-autoinhibited": {"target": "T7, CSF1R-autoinhibited (Homo sapiens, UniProt P07333)", "T7 construct": "purchased Eurofins/DiscoverX KINOMEscan scanMAX", "method": "as §1"}, "CSNK1A1L": {"target": "T8, CSNK1A1L (Homo sapiens, UniProt Q8N752)", "T8 construct": "purchased Eurofins/DiscoverX KINOMEscan scanMAX", "method": "as §1"}, "CSNK1G1": {"target": "T9, CSNK1G1 (Homo sapiens, UniProt Q9HCP0)", "T9 construct": "purchased Eurofins/DiscoverX KINOMEscan scanMAX", "method": "as §1"}, "CSNK2A2": {"target": "T10, CSNK2A2 (Homo sapiens, UniProt P19784)", "T10 construct": "purchased Eurofins/DiscoverX KINOMEscan scanMAX", "method": "as §1"}, "DYRK1A": {"target": "T11, DYRK1A (Homo sapiens, UniProt Q13627)", "T11 construct": "purchased Eurofins/DiscoverX KINOMEscan scanMAX", "method": "as §1"}, "DYRK1B": {"target": "T12, DYRK1B (Homo sapiens, UniProt Q9Y463)", "T12 construct": "purchased Eurofins/DiscoverX KINOMEscan scanMAX", "method": "as §1"}, "EPHA1": {"target": "T13, EPHA1 (Homo sapiens, UniProt P21709)", "T13 construct": "purchased Eurofins/DiscoverX KINOMEscan scanMAX", "T13 sequence (P21709 26-976)": "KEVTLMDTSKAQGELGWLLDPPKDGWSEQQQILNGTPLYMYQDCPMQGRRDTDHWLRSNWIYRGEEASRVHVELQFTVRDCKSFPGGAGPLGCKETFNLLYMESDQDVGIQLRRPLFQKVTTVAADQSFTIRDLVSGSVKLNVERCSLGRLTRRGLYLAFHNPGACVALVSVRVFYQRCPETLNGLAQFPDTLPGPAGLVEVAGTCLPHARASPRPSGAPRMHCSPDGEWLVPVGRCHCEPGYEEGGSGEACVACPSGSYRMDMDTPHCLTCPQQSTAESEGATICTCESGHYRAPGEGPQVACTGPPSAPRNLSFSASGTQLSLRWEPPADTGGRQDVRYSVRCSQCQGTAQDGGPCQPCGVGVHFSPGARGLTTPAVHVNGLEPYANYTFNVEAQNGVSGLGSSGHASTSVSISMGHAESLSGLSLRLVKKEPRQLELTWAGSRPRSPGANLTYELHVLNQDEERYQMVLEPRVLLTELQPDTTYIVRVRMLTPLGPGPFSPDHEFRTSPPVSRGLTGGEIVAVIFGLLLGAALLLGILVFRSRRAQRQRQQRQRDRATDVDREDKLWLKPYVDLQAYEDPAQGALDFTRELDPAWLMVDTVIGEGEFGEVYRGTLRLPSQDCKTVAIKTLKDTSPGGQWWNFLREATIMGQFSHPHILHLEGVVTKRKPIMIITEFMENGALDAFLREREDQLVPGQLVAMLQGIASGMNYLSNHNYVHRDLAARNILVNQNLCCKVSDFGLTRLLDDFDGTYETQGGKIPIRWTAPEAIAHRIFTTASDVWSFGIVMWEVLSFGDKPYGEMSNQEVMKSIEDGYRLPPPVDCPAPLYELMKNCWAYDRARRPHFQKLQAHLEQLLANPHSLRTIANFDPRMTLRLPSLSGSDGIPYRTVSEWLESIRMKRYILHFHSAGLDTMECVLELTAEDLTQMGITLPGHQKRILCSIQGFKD", "method": "as §1"}, "FES": {"target": "T14, FES (Homo sapiens, UniProt P07332)", "T14 construct": "purchased Eurofins/DiscoverX KINOMEscan scanMAX", "method": "as §1"}, "FGFR3": {"target": "T15, FGFR3 (Homo sapiens, UniProt P22607)", "T15 construct": "purchased Eurofins/DiscoverX KINOMEscan scanMAX", "method": "as §1"}, "FGFR3(G697C)": {"target": "T16, FGFR3(G697C) (Homo sapiens, UniProt P22607, G697C)", "T16 construct": "purchased Eurofins/DiscoverX KINOMEscan scanMAX", "method": "as §1"}, "HIPK2": {"target": "T17, HIPK2 (Homo sapiens, UniProt Q9H2X6)", "T17 construct": "purchased Eurofins/DiscoverX KINOMEscan scanMAX", "method": "as §1"}, "IRAK3": {"target": "T18, IRAK3 (Homo sapiens, UniProt Q9Y616)", "T18 construct": "purchased Eurofins/DiscoverX KINOMEscan scanMAX", "method": "as §1"}, "[1]": {"target": "T19, JAK2(JH1domain-catalytic) (Homo sapiens, UniProt O60674)", "T19 construct": "JAK2(JH1domain-catalytic); purchased Eurofins/DiscoverX KINOMEscan scanMAX", "method": "as §1"}, "KIT-autoinhibited": {"target": "T20, KIT-autoinhibited (Homo sapiens, UniProt P10721)", "T20 construct": "purchased Eurofins/DiscoverX KINOMEscan scanMAX", "method": "as §1"}, "LIMK1": {"target": "T21, LIMK1 (Homo sapiens, UniProt P53667)", "T21 construct": "purchased Eurofins/DiscoverX KINOMEscan scanMAX", "method": "as §1"}, "LIMK2": {"target": "T22, LIMK2 (Homo sapiens, UniProt P53671)", "T22 construct": "purchased Eurofins/DiscoverX KINOMEscan scanMAX", "method": "as §1"}, "MARK4": {"target": "T23, MARK4 (Homo sapiens, UniProt Q96L34)", "T23 construct": "purchased Eurofins/DiscoverX KINOMEscan scanMAX", "method": "as §1"}, "MEK2": {"target": "T24, MEK2 (Homo sapiens, UniProt P36507)", "T24 construct": "purchased Eurofins/DiscoverX KINOMEscan scanMAX", "method": "as §1"}, "MEK6": {"target": "T25, MEK6 (Homo sapiens, UniProt P52564)", "T25 construct": "purchased Eurofins/DiscoverX KINOMEscan scanMAX", "method": "as §1"}, "MYLK4": {"target": "T26, MYLK4 (Homo sapiens, UniProt Q86YV6)", "T26 construct": "purchased Eurofins/DiscoverX KINOMEscan scanMAX", "method": "as §1"}, "NEK5": {"target": "T27, NEK5 (Homo sapiens, UniProt Q6P3R8)", "T27 construct": "purchased Eurofins/DiscoverX KINOMEscan scanMAX", "method": "as §1"}, "NIK": {"target": "T28, NIK (Homo sapiens, UniProt Q99558)", "T28 construct": "purchased Eurofins/DiscoverX KINOMEscan scanMAX", "method": "as §1"}, "PAK6": {"target": "T29, PAK6 (Homo sapiens, UniProt Q9NQU5)", "T29 construct": "purchased Eurofins/DiscoverX KINOMEscan scanMAX", "method": "as §1"}, "PCTK1": {"target": "T30, PCTK1 (Homo sapiens, UniProt Q00536)", "T30 construct": "purchased Eurofins/DiscoverX KINOMEscan scanMAX", "method": "as §1"}, "PDPK1": {"target": "T31, PDPK1 (Homo sapiens, UniProt O15530)", "T31 construct": "purchased Eurofins/DiscoverX KINOMEscan scanMAX", "method": "as §1"}, "PIK3CB": {"target": "T32, PIK3CB (Homo sapiens, UniProt P42338)", "T32 construct": "purchased Eurofins/DiscoverX KINOMEscan scanMAX", "method": "as §1"}, "PIK3CD": {"target": "T33, PIK3CD (Homo sapiens, UniProt O00329)", "T33 construct": "purchased Eurofins/DiscoverX KINOMEscan scanMAX", "method": "as §1"}, "PRKCQ": {"target": "T34, PRKCQ (Homo sapiens, UniProt Q04759)", "T34 construct": "purchased Eurofins/DiscoverX KINOMEscan scanMAX", "method": "as §1"}, "PRKX": {"target": "T35, PRKX (Homo sapiens, UniProt P51817)", "T35 construct": "purchased Eurofins/DiscoverX KINOMEscan scanMAX", "method": "as §1"}, "RET": {"target": "T36, RET (Homo sapiens, UniProt P07949)", "T36 construct": "purchased Eurofins/DiscoverX KINOMEscan scanMAX", "method": "as §1"}, "RET(V804M)": {"target": "T37, RET(V804M) (Homo sapiens, UniProt P07949, V804M)", "T37 construct": "purchased Eurofins/DiscoverX KINOMEscan scanMAX", "method": "as §1"}, "TAOK3": {"target": "T38, TAOK3 (Homo sapiens, UniProt Q9H2K8)", "T38 construct": "purchased Eurofins/DiscoverX KINOMEscan scanMAX", "T38 sequence (Q9H2K8 whole entry)": "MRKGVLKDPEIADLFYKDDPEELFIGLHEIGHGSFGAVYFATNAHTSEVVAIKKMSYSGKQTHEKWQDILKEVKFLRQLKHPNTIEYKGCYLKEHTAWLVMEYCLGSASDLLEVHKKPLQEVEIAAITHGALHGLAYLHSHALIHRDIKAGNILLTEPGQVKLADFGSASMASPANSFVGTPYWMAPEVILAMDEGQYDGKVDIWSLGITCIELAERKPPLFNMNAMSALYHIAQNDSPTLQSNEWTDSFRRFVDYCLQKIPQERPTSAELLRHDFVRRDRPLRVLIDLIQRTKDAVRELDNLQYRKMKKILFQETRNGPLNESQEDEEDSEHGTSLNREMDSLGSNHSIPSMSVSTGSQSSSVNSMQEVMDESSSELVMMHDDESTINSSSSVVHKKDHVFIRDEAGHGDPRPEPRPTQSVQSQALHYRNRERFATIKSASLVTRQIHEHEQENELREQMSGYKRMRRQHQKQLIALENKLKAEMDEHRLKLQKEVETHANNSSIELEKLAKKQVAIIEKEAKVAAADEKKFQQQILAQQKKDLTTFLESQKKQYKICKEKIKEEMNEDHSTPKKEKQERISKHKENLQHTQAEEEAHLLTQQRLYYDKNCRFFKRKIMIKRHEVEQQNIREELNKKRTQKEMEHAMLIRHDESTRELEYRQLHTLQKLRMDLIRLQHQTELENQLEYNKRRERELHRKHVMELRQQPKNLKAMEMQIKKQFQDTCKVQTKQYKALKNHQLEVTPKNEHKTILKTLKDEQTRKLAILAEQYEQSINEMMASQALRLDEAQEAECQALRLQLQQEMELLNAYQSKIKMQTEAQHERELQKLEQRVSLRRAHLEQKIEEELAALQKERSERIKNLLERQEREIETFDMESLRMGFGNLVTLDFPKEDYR", "method": "as §1"}, "TLK1": {"target": "T39, TLK1 (Homo sapiens, UniProt Q9UKI8)", "T39 construct": "purchased Eurofins/DiscoverX KINOMEscan scanMAX", "method": "as §1"}, "TNK1": {"target": "T40, TNK1 (Homo sapiens, UniProt Q13470)", "T40 construct": "purchased Eurofins/DiscoverX KINOMEscan scanMAX", "T40 sequence (Q13470 whole entry)": "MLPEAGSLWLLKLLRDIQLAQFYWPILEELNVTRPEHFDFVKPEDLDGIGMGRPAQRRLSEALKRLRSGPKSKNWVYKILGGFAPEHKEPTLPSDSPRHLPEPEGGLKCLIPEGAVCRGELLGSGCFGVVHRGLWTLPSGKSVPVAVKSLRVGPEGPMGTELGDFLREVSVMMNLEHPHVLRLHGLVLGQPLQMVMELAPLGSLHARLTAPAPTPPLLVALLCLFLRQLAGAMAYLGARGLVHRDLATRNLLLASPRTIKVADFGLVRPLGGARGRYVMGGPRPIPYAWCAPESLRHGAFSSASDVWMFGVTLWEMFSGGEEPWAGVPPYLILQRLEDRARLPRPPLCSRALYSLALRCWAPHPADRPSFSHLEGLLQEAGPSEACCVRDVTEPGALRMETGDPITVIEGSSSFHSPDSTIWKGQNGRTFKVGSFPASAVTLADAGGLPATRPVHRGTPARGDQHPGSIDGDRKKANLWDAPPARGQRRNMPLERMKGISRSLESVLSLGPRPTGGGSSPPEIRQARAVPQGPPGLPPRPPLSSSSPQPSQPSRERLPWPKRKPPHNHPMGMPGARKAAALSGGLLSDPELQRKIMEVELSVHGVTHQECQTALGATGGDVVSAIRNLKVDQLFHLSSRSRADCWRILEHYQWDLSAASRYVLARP", "method": "as §1"}, "TRKB": {"target": "T41, TRKB (Homo sapiens, UniProt Q16620)", "T41 construct": "purchased Eurofins/DiscoverX KINOMEscan scanMAX", "T41 sequence (Q16620 32-822)": "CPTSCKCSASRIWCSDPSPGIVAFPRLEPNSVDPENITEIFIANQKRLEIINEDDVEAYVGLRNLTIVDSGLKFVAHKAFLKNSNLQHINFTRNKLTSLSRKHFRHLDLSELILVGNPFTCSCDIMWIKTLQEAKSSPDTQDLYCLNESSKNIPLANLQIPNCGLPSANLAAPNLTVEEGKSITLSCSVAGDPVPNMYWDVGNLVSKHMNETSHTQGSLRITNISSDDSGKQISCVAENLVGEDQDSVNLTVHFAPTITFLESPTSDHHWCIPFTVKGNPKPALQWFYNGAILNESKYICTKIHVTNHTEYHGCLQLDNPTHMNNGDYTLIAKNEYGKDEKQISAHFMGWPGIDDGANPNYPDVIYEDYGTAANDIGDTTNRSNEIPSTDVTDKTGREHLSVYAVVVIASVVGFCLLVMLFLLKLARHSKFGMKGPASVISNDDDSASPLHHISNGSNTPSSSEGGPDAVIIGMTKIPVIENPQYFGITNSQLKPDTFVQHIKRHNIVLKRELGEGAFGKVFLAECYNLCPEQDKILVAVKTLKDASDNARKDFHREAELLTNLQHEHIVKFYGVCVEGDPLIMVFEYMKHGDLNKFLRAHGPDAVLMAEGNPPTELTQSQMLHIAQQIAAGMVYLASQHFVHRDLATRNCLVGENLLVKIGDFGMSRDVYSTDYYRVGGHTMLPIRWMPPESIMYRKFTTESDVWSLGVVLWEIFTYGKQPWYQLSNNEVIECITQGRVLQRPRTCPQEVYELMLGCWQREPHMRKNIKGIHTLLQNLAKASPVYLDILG", "method": "as §1"}, "WNK1": {"target": "T42, WNK1 (Homo sapiens, UniProt Q9H4A3)", "T42 construct": "DNA tag (qPCR barcode); purchased Eurofins/DiscoverX KINOMEscan scanMAX", "method": "as §1"}, "WNK3": {"target": "T43, WNK3 (Homo sapiens, UniProt Q9BYP7)", "T43 construct": "DNA tag (qPCR barcode); purchased Eurofins/DiscoverX KINOMEscan scanMAX", "method": "as §1"}},
  "data": [
    {"smiles": "CN1CCN(C2CCC(n3cc(-c4ccc(Oc5ccccc5)cc4)c4c(N)ncnc43)CC2)CC1", "note": "(stereo not shown) [A-419259]", "values": [
      {"measurement": "% Control", "setting": "ALK", "value": 29, "unit": "%"},
      {"measurement": "% Control", "setting": "ARK5", "value": 90, "unit": "%"},
      {"measurement": "% Control", "setting": "CASK", "value": 67, "unit": "%"},
      {"measurement": "% Control", "setting": "CDK4-cyclinD3", "value": 81, "unit": "%"},
      {"measurement": "% Control", "setting": "CDK5", "value": 83, "unit": "%"},
      {"measurement": "% Control", "setting": "CDK8", "value": 28, "unit": "%"},
      {"measurement": "% Control", "setting": "CSF1R-autoinhibited", "value": 57, "unit": "%"},
      {"measurement": "% Control", "setting": "CSNK1A1L", "value": 64, "unit": "%"},
      {"measurement": "% Control", "setting": "CSNK1G1", "value": 80, "unit": "%"},
      {"measurement": "% Control", "setting": "CSNK2A2", "value": 66, "unit": "%"},
      {"measurement": "% Control", "setting": "DYRK1A", "value": 99, "unit": "%"},
      {"measurement": "% Control", "setting": "DYRK1B", "value": 21, "unit": "%"},
      {"measurement": "% Control", "setting": "EPHA1", "value": 58, "unit": "%"},
      {"measurement": "% Control", "setting": "FES", "value": 100, "unit": "%"},
      {"measurement": "% Control", "setting": "FGFR3", "value": 30, "unit": "%"},
      {"measurement": "% Control", "setting": "FGFR3(G697C)", "value": 27, "unit": "%"},
      {"measurement": "% Control", "setting": "HIPK2", "value": 100, "unit": "%"},
      {"measurement": "% Control", "setting": "IRAK3", "value": 89, "unit": "%"},
      {"measurement": "% Control", "setting": "[1]", "value": 100, "unit": "%"},
      {"measurement": "% Control", "setting": "KIT-autoinhibited", "value": 6.9, "unit": "%"},
      {"measurement": "% Control", "setting": "LIMK1", "value": 31, "unit": "%"},
      {"measurement": "% Control", "setting": "LIMK2", "value": 91, "unit": "%"},
      {"measurement": "% Control", "setting": "MARK4", "value": 97, "unit": "%"},
      {"measurement": "% Control", "setting": "MEK2", "value": 0.2, "unit": "%"},
      {"measurement": "% Control", "setting": "MEK6", "value": 98, "unit": "%"},
      {"measurement": "% Control", "setting": "MYLK4", "value": 96, "unit": "%"},
      {"measurement": "% Control", "setting": "NEK5", "value": 100, "unit": "%"},
      {"measurement": "% Control", "setting": "NIK", "value": 100, "unit": "%"},
      {"measurement": "% Control", "setting": "PAK6", "value": 84, "unit": "%"},
      {"measurement": "% Control", "setting": "PCTK1", "value": 99, "unit": "%"},
      {"measurement": "% Control", "setting": "PDPK1", "value": 100, "unit": "%"},
      {"measurement": "% Control", "setting": "PIK3CB", "value": 64, "unit": "%"},
      {"measurement": "% Control", "setting": "PIK3CD", "value": 100, "unit": "%"},
      {"measurement": "% Control", "setting": "PRKCQ", "value": 66, "unit": "%"},
      {"measurement": "% Control", "setting": "PRKX", "value": 100, "unit": "%"},
      {"measurement": "% Control", "setting": "RET", "value": 0, "unit": "%"},
      {"measurement": "% Control", "setting": "RET(V804M)", "value": 21, "unit": "%"},
      {"measurement": "% Control", "setting": "TAOK3", "value": 100, "unit": "%"},
      {"measurement": "% Control", "setting": "TLK1", "value": 93, "unit": "%"},
      {"measurement": "% Control", "setting": "TNK1", "value": 0, "unit": "%"},
      {"measurement": "% Control", "setting": "TRKB", "value": 29, "unit": "%"},
      {"measurement": "% Control", "setting": "WNK1", "value": 73, "unit": "%"},
      {"measurement": "% Control", "setting": "WNK3", "value": 46, "unit": "%"}
    ]}
  ]
}
